Patent publication EP4796130A1, “ANTI-TISSUE FACTOR ANTIBODY-DRUG CONJUGATE COMPRISING CAMPTOTHECIN DERIVATIVE” (Celltrion, Inc., priority 2023, dated 2025)
Values joined by “and” are separate entries in the source; they are usually repeats but may differ in a detail not shown here. Equal entries are not always repeated.

Key:
[1] = system: MCF-7 (a breast cancer cell line); assay type: cell-based; conditions: 6 days incubation
[2] = system: KYSE520 (human esophageal cancer xenograft model); test: In vivo antitumor efficacy, KYSE520 xenograft model; design: species or system BALB/c nude mice; conditions: for Tumor Volume / Tumor Weights on Day 35: mean ± SEM; for T/Cweight / TGI: day 35 vs control group G1; for T/C: tumor volume on day 35 vs control group G1
[3] = one mouse in G5 (3 mg/kg i.v. QW x 3 weeks); day 18 after start of treatment; autopsied, no abnormalities found
From the text: Animal body weights were regularly monitored as an indirect measure of toxicity. […]

[4] = system: HPAFII (human pancreatic cancer xenograft model); test: In vivo antitumor efficacy, HPAFII xenograft model; design: species or system CB17 SCID mice; conditions: for Tumor Volume / Tumor Weights on Day 28: mean ± SEM; for T/Cweight / TGI: day 28 vs control group G1; for T/C: tumor volume on day 28 vs control group G1

Tivdak: ADC in which MMAE is conjugated to Tisotumab; purchased from Jupiter Research Service LLC; DAR 4
IC50 [1]: 442 nM | Tumor Volume ([2]; 1 mg/kg i.v. QW x 3 weeks, day 0): 175 ± 8 mm^3 | Tumor Volume ([2]; 1 mg/kg i.v. QW x 3 weeks, day 4): 279 ± 20 mm^3 | Tumor Volume ([2]; 1 mg/kg i.v. QW x 3 weeks, day 7): 360 ± 29 mm^3 | Tumor Volume ([2]; 1 mg/kg i.v. QW x 3 weeks, day 11): 489 ± 37 mm^3 | Tumor Volume ([2]; 1 mg/kg i.v. QW x 3 weeks, day 14): 672 ± 51 mm^3 | Tumor Volume ([2]; 1 mg/kg i.v. QW x 3 weeks, day 18): 771 ± 64 mm^3 | Tumor Volume ([2]; 1 mg/kg i.v. QW x 3 weeks, day 21): 865 ± 75 mm^3 | Tumor Volume ([2]; 1 mg/kg i.v. QW x 3 weeks, day 25): 1,168 ± 101 mm^3 | Tumor Volume ([2]; 1 mg/kg i.v. QW x 3 weeks, day 28): 1,497 ± 121 mm^3 | Tumor Volume ([2]; 1 mg/kg i.v. QW x 3 weeks, day 32): 1,634 ± 126 mm^3 | Tumor Volume ([2]; 1 mg/kg i.v. QW x 3 weeks, day 35): 1,893 ± 166 mm^3 | T/Cweight ([2]; 1 mg/kg i.v. QW x 3 weeks): 86.67% | TGI ([2]; 1 mg/kg i.v. QW x 3 weeks): 13.03% | Tumor Weights on Day 35 ([2]; 1 mg/kg i.v. QW x 3 weeks): 1.869 ± 0.138 g | T/C ([2]; 1 mg/kg i.v. QW x 3 weeks): 88.03% | Tumor Volume ([2]; 3 mg/kg i.v. QW x 3 weeks, day 0): 175 ± 8 mm^3 | Tumor Volume ([2]; 3 mg/kg i.v. QW x 3 weeks, day 4): 241 ± 23 mm^3 | Tumor Volume ([2]; 3 mg/kg i.v. QW x 3 weeks, day 7): 279 ± 24 mm^3 | Tumor Volume ([2]; 3 mg/kg i.v. QW x 3 weeks, day 11): 281 ± 31 mm^3 | Tumor Volume ([2]; 3 mg/kg i.v. QW x 3 weeks, day 14): 270 ± 31 mm^3 | Tumor Volume ([2]; 3 mg/kg i.v. QW x 3 weeks, day 18): 174 ± 17 mm^3 | Tumor Volume ([2]; 3 mg/kg i.v. QW x 3 weeks, day 21): 154 ± 17 (n = 9)^c mm^3 | Tumor Volume ([2]; 3 mg/kg i.v. QW x 3 weeks, day 25): 142 ± 15(n = 9) mm^3 | Tumor Volume ([2]; 3 mg/kg i.v. QW x 3 weeks, day 28): 129 ± 16 (n = 9) mm^3 | Tumor Volume ([2]; 3 mg/kg i.v. QW x 3 weeks, day 32): 115 ± 16(n = 9) mm^3 | Tumor Volume ([2]; 3 mg/kg i.v. QW x 3 weeks, day 35): 99 mm^3 and 99 ± 14 (n = 9) mm^3 and 99 ± 14 mm^3 | T/Cweight ([2]; 3 mg/kg i.v. QW x 3 weeks): 4.12% | TGI ([2]; 3 mg/kg i.v. QW x 3 weeks): 103.89% | Tumor Weights on Day 35 ([2]; 3 mg/kg i.v. QW x 3 weeks): 0.089 ± 0.013 g | T/C ([2]; 3 mg/kg i.v. QW x 3 weeks): 4.58% | Tumor Volume ([2]; 10 mg/kg i.v. QW x 3 weeks, day 0): 175 ± 8 mm^3 | Tumor Volume ([2]; 10 mg/kg i.v. QW x 3 weeks, day 4): 243 ± 22 mm^3 | Tumor Volume ([2]; 10 mg/kg i.v. QW x 3 weeks, day 7): 259 ± 24 mm^3 | Tumor Volume ([2]; 10 mg/kg i.v. QW x 3 weeks, day 11): 234 ± 23 mm^3 | Tumor Volume ([2]; 10 mg/kg i.v. QW x 3 weeks, day 14): 196 ± 16 mm^3 | Tumor Volume ([2]; 10 mg/kg i.v. QW x 3 weeks, day 18): 122 ± 11 mm^3 | Tumor Volume ([2]; 10 mg/kg i.v. QW x 3 weeks, day 21): 101 ± 7 mm^3 | Tumor Volume ([2]; 10 mg/kg i.v. QW x 3 weeks, day 25): 88 ± 7 mm^3 | Tumor Volume ([2]; 10 mg/kg i.v. QW x 3 weeks, day 28): 69 ± 5 mm^3 | Tumor Volume ([2]; 10 mg/kg i.v. QW x 3 weeks, day 32): 58 ± 5 mm^3 | Tumor Volume ([2]; 10 mg/kg i.v. QW x 3 weeks, day 35): 45 mm^3 and 45 ± 6 mm^3 | T/Cweight ([2]; 10 mg/kg i.v. QW x 3 weeks): 1.93% | TGI ([2]; 10 mg/kg i.v. QW x 3 weeks): 106.62% | Tumor Weights on Day 35 ([2]; 10 mg/kg i.v. QW x 3 weeks): 0.042 ± 0.004 g | T/C ([2]; 10 mg/kg i.v. QW x 3 weeks): 2.08% | body weight loss [3]: more than 20% | Tumor Volume ([4]; 0.3 mg/kg i.v. QW × 3, day 0): 235 ± 17 mm^3 | Tumor Volume ([4]; 0.3 mg/kg i.v. QW × 3, day 4): 313 ± 34 mm^3 | Tumor Volume ([4]; 0.3 mg/kg i.v. QW × 3, day 7): 361 ± 49 mm^3 | Tumor Volume ([4]; 0.3 mg/kg i.v. QW × 3, day 11): 476 ± 64 mm^3 | Tumor Volume ([4]; 0.3 mg/kg i.v. QW × 3, day 14): 576 ± 69 mm^3 | Tumor Volume ([4]; 0.3 mg/kg i.v. QW × 3, day 18): 737 ± 91 mm^3 | Tumor Volume ([4]; 0.3 mg/kg i.v. QW × 3, day 21): 934 ± 113 mm^3 | Tumor Volume ([4]; 0.3 mg/kg i.v. QW × 3, day 25): 1,219 ± 141 mm^3 | Tumor Volume ([4]; 0.3 mg/kg i.v. QW × 3, day 28): 1,607 ± 144 mm^3 | T/Cweight ([4]; 0.3 mg/kg i.v. QW × 3): 68.36% | TGI ([4]; 0.3 mg/kg i.v. QW × 3): 35.24% | Tumor Weights on Day 28 ([4]; 0.3 mg/kg i.v. QW × 3): 1.461 ± 0.146 g | T/C ([4]; 0.3 mg/kg i.v. QW × 3): 68.29% | Tumor Volume ([4]; 1 mg/kg i.v. QW × 1, day 0): 235 ± 17 mm^3 | Tumor Volume ([4]; 1 mg/kg i.v. QW × 1, day 4): 217 ± 16 mm^3 | Tumor Volume ([4]; 1 mg/kg i.v. QW × 1, day 7): 141 ± 16 mm^3 | Tumor Volume ([4]; 1 mg/kg i.v. QW × 1, day 11): 87 ± 9 mm^3 | Tumor Volume ([4]; 1 mg/kg i.v. QW × 1, day 14): 103 ± 14 mm^3 | Tumor Volume ([4]; 1 mg/kg i.v. QW × 1, day 18): 161 ± 31 mm^3 | Tumor Volume ([4]; 1 mg/kg i.v. QW × 1, day 21): 213 ± 34 mm^3 | Tumor Volume ([4]; 1 mg/kg i.v. QW × 1, day 25): 344 ± 49 mm^3 | Tumor Volume ([4]; 1 mg/kg i.v. QW × 1, day 28): 486 mm^3 and 486 ± 73 mm^3 | T/Cweight ([4]; 1 mg/kg i.v. QW × 1): 21.23% | TGI ([4]; 1 mg/kg i.v. QW × 1): 88.15% | Tumor Weights on Day 28 ([4]; 1 mg/kg i.v. QW × 1): 0.454 ± 0.088 g | T/C ([4]; 1 mg/kg i.v. QW × 1): 20.67% | Tumor Volume ([4]; 1 mg/kg i.v. QW × 3, day 0): 235 ± 17 mm^3 | Tumor Volume ([4]; 1 mg/kg i.v. QW × 3, day 4): 190 ± 12 mm^3 | Tumor Volume ([4]; 1 mg/kg i.v. QW × 3, day 7): 124 ± 11 mm^3 | Tumor Volume ([4]; 1 mg/kg i.v. QW × 3, day 11): 85 ± 9 mm^3 | Tumor Volume ([4]; 1 mg/kg i.v. QW × 3, day 14): 70 ± 8 mm^3 | Tumor Volume ([4]; 1 mg/kg i.v. QW × 3, day 18): 54 ± 6 mm^3 | Tumor Volume ([4]; 1 mg/kg i.v. QW × 3, day 21): 40 ± 4 mm^3 | Tumor Volume ([4]; 1 mg/kg i.v. QW × 3, day 25): 33 ± 4 mm^3 | Tumor Volume ([4]; 1 mg/kg i.v. QW × 3, day 28): 26 mm^3 and 26 ± 3 mm^3 | T/Cweight ([4]; 1 mg/kg i.v. QW × 3): 1.03% | TGI ([4]; 1 mg/kg i.v. QW × 3): 109.91% | Tumor Weights on Day 28 ([4]; 1 mg/kg i.v. QW × 3): 0.022 ± 0.003 g | T/C ([4]; 1 mg/kg i.v. QW × 3): 1.09% | Tumor Volume ([4]; 3 mg/kg i.v. QW × 1, day 0): 235 ± 17 mm^3 | Tumor Volume ([4]; 3 mg/kg i.v. QW × 1, day 4): 216 ± 19 mm^3 | Tumor Volume ([4]; 3 mg/kg i.v. QW × 1, day 7): 128 ± 10 mm^3 | Tumor Volume ([4]; 3 mg/kg i.v. QW × 1, day 11): 69 ± 8 mm^3 | Tumor Volume ([4]; 3 mg/kg i.v. QW × 1, day 14): 56 ± 4 mm^3 | Tumor Volume ([4]; 3 mg/kg i.v. QW × 1, day 18): 39 ± 3 mm^3 | Tumor Volume ([4]; 3 mg/kg i.v. QW × 1, day 21): 30 ± 2 mm^3 | Tumor Volume ([4]; 3 mg/kg i.v. QW × 1, day 25): 26 ± 2 mm^3 | Tumor Volume ([4]; 3 mg/kg i.v. QW × 1, day 28): 19 mm^3 and 19 ± 1 mm^3 | T/Cweight ([4]; 3 mg/kg i.v. QW × 1): 0.54% | TGI ([4]; 3 mg/kg i.v. QW × 1): 110.22% | Tumor Weights on Day 28 ([4]; 3 mg/kg i.v. QW × 1): 0.012 ± 0.001 g | T/C ([4]; 3 mg/kg i.v. QW × 1): 0.80%
